Key:
Type in all cases: biochemical
[1] = biological target: T1, EfHTG (Equisetum fluviatile hetero-trans-beta-glucanase) (Equisetum fluviatile, UniProt A0A0K2WA62); assay: radiochemical CXE and MXE assay, [3H]XXXGol incorporation; conditions: cellulose or MLG donor, succinate pH 5.5, 20 C, 24 h
T1 construct: gene HTG; secreted by Pichia pastoris SMD1168H; culture filtrate used; made as in Simmons et al. 2015
T1 sequence (A0A0K2WA62 22-280): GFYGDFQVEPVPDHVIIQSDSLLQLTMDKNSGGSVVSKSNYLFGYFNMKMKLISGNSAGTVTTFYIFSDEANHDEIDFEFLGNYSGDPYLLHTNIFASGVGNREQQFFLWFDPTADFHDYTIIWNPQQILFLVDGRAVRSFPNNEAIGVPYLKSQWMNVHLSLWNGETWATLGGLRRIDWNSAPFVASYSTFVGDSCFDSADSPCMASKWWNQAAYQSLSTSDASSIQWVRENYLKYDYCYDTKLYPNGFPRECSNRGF

[2] = biological target: T1, EfHTG (Equisetum fluviatile hetero-trans-beta-glucanase); assay: radiochemical transglucosylase assay (XET, MXE, CXE); conditions: acceptor substrate; labelled compound; xyloglucan, MLG or cellulose donor; pH 5.5
[3] = biological target: T1, EfHTG (Equisetum fluviatile hetero-trans-beta-glucanase); assay: radiochemical CXE assay, [3H]XXXGol incorporation; conditions: read-out: % inhibition at 0.3 mM

Structure (SMILES)	% inhibition ([1]; [3H]XXXGol acceptor)	further results
OC[C@H]1O[C@@H](O[C@H]2[C@H](O)[C@@H](O)[C@H](O[C@H]3[C@H](O)[C@@H](O)[C@H](O[C@H]4[C@H](O)[C@@H](O)C(O)O[C@@H]4CO)O[C@@H]3CO)O[C@@H]2CO)[C@H](O)[C@@H](O)[C@@H]1O (stereo partly shown) [cellotetraose]	We found that cello‐oligosaccharides (C2–C6) are efficient inhibitors of Equisetum HTG	
OC[C@H]1O[C@@H](O[C@H]2[C@H](O)[C@@H](O)[C@H](O[C@H]3[C@H](O)[C@@H](O)[C@H](O[C@H]4[C@H](O)[C@@H](O)[C@H](O[C@H]5[C@H](O)[C@@H](O)C(O)O[C@@H]5CO)O[C@@H]4CO)O[C@@H]3CO)O[C@@H]2CO)[C@H](O)[C@@H](O)[C@@H]1O (stereo partly shown) [cellopentaose]	We found that cello‐oligosaccharides (C2–C6) are efficient inhibitors of Equisetum HTG	
OC[C@H]1O[C@@H](O[C@H]2[C@H](O)[C@@H](O)C(O)O[C@@H]2CO)[C@H](O)[C@@H](O)[C@@H]1O (stereo partly shown) [cellobiose]		% inhibition ([1]; 0.01-80 mM inhibitor, [3H]XXXGol or [3H]XyG acceptor): Cellobiose inhibited EfHTG’s CXE activity equally whether [^3H]XXXGol or polymeric [^3H]XyG was the acceptor
OC[C@@H](O)[C@@H](O[C@@H]1O[C@H](CO[C@H]2OC[C@@H](O)[C@H](O)[C@H]2O)[C@@H](O[C@@H]2O[C@H](CO[C@H]3OC[C@@H](O)[C@H](O)[C@H]3O)[C@@H](O[C@@H]3O[C@H](CO[C@H]4OC[C@@H](O)[C@H](O)[C@H]4O)[C@@H](O)[C@H](O)[C@H]3O)[C@H](O)[C@H]2O)[C@H](O)[C@H]1O)[C@H](O)[C@@H](O)CO [[3H]XXXGol]		radiochemical transglucosylase assay (XET, MXE, CXE) [2]: albeit at lower rates than onto the oligosaccharide [^3H]XXXGol
OC[C@H]1O[C@@H](O[C@H]2[C@H](O)[C@@H](O)[C@H](O[C@H]3[C@H](O)[C@@H](O)[C@H](O[C@H]4[C@H](O)[C@@H](O)[C@H](O[C@H]5[C@H](O)[C@@H](O)[C@H](O[C@H]6[C@H](O)[C@@H](O)C(O)O[C@@H]6CO)O[C@@H]5CO)O[C@@H]4CO)O[C@@H]3CO)O[C@@H]2CO)[C@H](O)[C@@H](O)[C@@H]1O (stereo partly shown) [cellohexaose]	We found that cello‐oligosaccharides (C2–C6) are efficient inhibitors of Equisetum HTG	
CCCCN1C[C@H](O)[C@@H](O)[C@H](O)[C@H]1CO [N-butyldeoxynojirimycin]		inhibition at 300 µM [3]: ~50%
OC[C@H]1O[C@@H](O[C@H]2[C@H](O)[C@@H](O)[C@H](O[C@H]3[C@H](O)[C@@H](O)C(O)O[C@@H]3CO)O[C@@H]2CO)[C@H](O)[C@@H](O)[C@@H]1O (stereo partly shown) [cellotriose]	We found that cello‐oligosaccharides (C2–C6) are efficient inhibitors of Equisetum HTG	

From publication PMC8611796, “Defining natural factors that stimulate and inhibit cellulose:xyloglucan hetero‐transglucosylation” (The Plant Journal, 2021)
